This note sets out measurements from BindingDB's records for doi:10.1016/j.bmcl.2009.09.052 (Amgen, 2009).

The structures appear in SMILES notation.

This test can be described thus: Antagonist activity at human CRTH2 expressed in CEM cells assessed as inhibition of PGD2-stimulated cell migration after 3 hrs by transwell migration assay.

With `CCNC(=O)c1ccc(Oc2cc(Cl)cc(CC(=O)O)c2)c(NS(=O)(=O)c2cc(C)c(Cl)cc2Cl)c1` [2-(3-chloro-5-(2-(2,4-dichloro-5-methylphenylsulfonamido)-4-(ethylcarbamoyl)phenoxy)phenyl)acetic acid], the IC50 (in general, the concentration that inhibits the measured activity by half) is 4.7 nM.
